Assay results: US20190321429A1, “TOPICAL NATURAL LITHRAEA CAUSTICA EXTRACT COMPOSITION AND USE THEREOF IN TUMOURS” (UNIVERSIDAD DE SANTIAGO DE CHILE, priority 2016, published 2019)

How the values were obtained:
[1] = system: spleen lymphocyte populations; experiment: T lymphocyte populations in spleen of tumor-challenged treated mice (CD4, CD8, Treg, Th1, Th17); type: in vivo; conditions: b6 mice
Procedure: To analyze the effects of this treatment on lymphocyte populations T to determine if there was an analogy to these clinical cases effect, the treatment effect level spleen lymphocyte populations CD4 and CD8 was evaluated also subpopulations CD4 CD25 foxp3 which realizes regulatory T cells, the CD4+population Tbet+which realizes THL population and the presence of CD4+population+Ror range which realizes TH17 population. Treatment with DPCP associated tumor challenge, induced an increase in Th1 population present in spleen (FIG. 3). The analysis of mice treated b6 at least 8 experiment allows the characterization that this population increased compared to control animals, however, not be significant. […] Value p=0.59.
As for the previous case, it was determined that the effect of treatment, this time with DNCB on lymphocyte populations T as in previous case Treg (FIG. 8), Th1 (FIGS. 9A and 9B) and Th17 (FIG. 10) in b6 mice. […] Analysis of at least 8 animals per treatment let characterize the increase in this population is significant.
Finally, for the case of animals treated with liter extract, it was observed that tumor level, two behaviors that may indicate a temporary dynamic behavior of cell populations response to tumor level. […] Furthermore, the bearings of the other populations are inconclusive (FIG. 17B, 17C and 17D).

[2] = system: B16 murine melanoma model; experiment: Transplanted B16 melanoma tumor model in B6 mice: tumor appearance and growth under topical treatment; type: in vivo
Procedure: The effect of topical treatment with 0.1% diphencyprone in mice of the B6 strain transplanted tumor model was evaluated bl6. For which initially the animals were challenged with live cells reaching generating detectable tumors between 10 days until day 20 post challenge (FIG. 1). Tumor growth has a linear behavior reaching a peak at day 7 post near challenge (FIG. 2, black circles). […] For both cases the analysis of linear growth curves of both has no significant difference when comparing the slopes. Value p=0.85.

[3] = treatment associated with tumor challenge, versus control animals

O=c1c(-c2ccccc2)c1-c1ccccc1 [DPCP, diphencyprone]
Th1 population (CD4+ Tbet+) present in spleen [1, 3]: increase | Th17 population (CD4+ Ror gamma+) present in spleen [1, 3]: showed no change | Treg population (CD4 CD25 foxp3) in spleen [1, 3]: showed no change | CD8 or CD4 populations associated with treatment ([1]; tumor challenge): No significant changes | overall effect of curative treatment on tumor model ([2]; mice, DPCP 0.1% to 1%): not have major effects | Tumor growth (time 0 = tumor mass detected) versus control animals treated with excipients ([2]; topical 0.1% DPCP, B6 mice): no difference | tumor appearance, average detection ([2]; topical 0.1% diphencyprone, B6 mice, post challenge, shift from 13 days, change not significant): 16 days
